Legend:
[1] = tested on: NCI-H292 cells; assay: Mucin production inhibitory action (EGF-stimulated NCI-H292 cells, mucin in culture supernatant by ELISA); assay type: cell-based, human; conditions: for inhibition at 1 µM / inhibition at 3 µM / inhibition at 10 µM: Homo sapiens, EGF 25 ng/mL, 48 hours, NCI-H292 cells, read-out: Percent inhibition of mucin production (%); for inhibition at 1 µM: Concentration 1 µM; for inhibition at 3 µM: Concentration 3 µM; for inhibition at 10 µM: Concentration 10 µM; for production of mucin (effect in words): summary of Table 1, EGF-stimulated NCI-H292 cells
Method: The test was carried out in accordance with a partially modified method of Takeyama et al. (Proc. Natl. Acad. Sci. USA, Vol. 96, P. 3081-3086, 1999). The specific procedure will be described as follows. NCI-H292 cells, which are human respiratory tract epithelial cell lines, were suspended in a 10%FCS-containing RPMI 1640 culture medium, and disseminated to a 12-well culture plate so that the cell concentration of each well was adjusted to 2 x 10^5 cell/well, followed by culturing for two days. Subsequently, the culture medium was changed to a 0.2%FCS-containing RPMI culture medium, followed by culturing for another two days. The thus-cultured cells were employed in the test. Each test drug and EGF (25 ng/mL) were added to each well, and the mucin level of the supernatant of the culture 48 hours after initiation of culturing was determined through the ELISA method. Percent inhibition (%) with regard to control value was calculated by supposing the difference produced by subtracting normal value from control value to be 100%. In this case, the control value is defined as the mucin amount in the culture supernatant to which only EGF was added, while the normal value is defined as the muchin amount in the culture supernatant containing neither of test drug and EGF. In addition, cilomilast (J. Pharmacol. Exp. Ther., Vol. 284, p. 420-426, 1998) and roflumilast (J. Pharmacol. Exp. Ther., Vol. 297, p. 267-279, 2001), which are typical phosphodiesterase (IV) inhibitors were also tested in a similar manner.

[2] = tested on: Brown Norway rats; assay: Inhibitory effect on hyper-secretion of respiratory tract mucus (LPS-induced, mucus in BALF by UEA-1 lectin assay); assay type: in vivo; conditions: mean ± standard deviation; for Mucus level of BALF: LPS 100 µg intratracheal, 6 samples; for Percent inhibition (% ): mucus level of BALF vs control and normal
Method: The procedure of the test was based on a partially modified method of Tesfaigzi et al. (Am. J. Physiol. Lung Cell Mol. Physiol., Vol. 279, p. L1210-L1217, 2000). The specific procedure will be described as follows. To each of the 7-week male Brown Norway rats, LPS (derived from E. coli., strain 0111: B4) 100 µg was intratracheally administered under anesthetic with ether, thereby inducing inflammation. Two days after administration of LPS, the rat was slaughtered under anesthetic with pentobarbital, and the extirpated respiratory tract was washed with PBS containing 5mM EDTA and 5mM dithiothreitol (3 mL). The amount of mucus contained in the collected BALF was determined through a lectin assay method employing UEA-1. Each test drug was suspended in a 0.5% HPMC, and the suspension was orally administered one hour before administration of LPS and on the following day. In Table 2, numerical data are represented by mean value ± standard deviation (each group: 6 samples). Percent inhibition (%) was calculated in the same way as in Test Example 1.

[3] = tested on: goblet cells in the respiratory tract epithelium; assay: Inhibitory effect on hyperplasia of goblet cells in the respiratory tract epithelium (Sephadex-induced, PAS staining); assay type: in vivo, Lewis Wistar rats; conditions: Fig. 1; oral, once per day for seven days; Sephadex-treated rats; numbers only in the figure
Method: The test was carried out in accordance with a partially modified method of Matsubara et al. (Int. Arch. Allergy Immunol., Vol. 116, p. 67-75, 1998). The specific procedure will be described as follows. To each of the 7-week old male Lewis Wistar rats, a Sephadex suspension (0.1 mg/mL/head) was intravenously administered (total three times: day 0, 2, and 5). Two days after the final administration, the rat was slaughtered by exsanguination under anesthetic with pentobarbital. The lung tissue was extirpated from the rat and immersed in a neutral formalin buffer for fixation. […] The ratio of the PAS-stained positive area to the respiratory tract epithelium was calculated by use of an image analysis software (Winroof). Each test compound was suspended in 0.5% hydroxypropylmethyl cellulose (HPMC), and the suspension was orally administered once per day for continuous seven days from the start of administration of Sephadex. In the Figure, numerical data are represented by mean value ± standard deviation (each group: 11-12 samples).

Compound	inhibition at 1 µM [1] [%]	inhibition at 3 µM [1] [%]	inhibition at 10 µM [1] [%]	production of mucin (effect in words) [1]	Mucus level of BALF ([2]; 10 mg/kg oral) [ng/mL]	Percent inhibition (% ) ([2]; 10 mg/kg oral) [%]	Mucus level of BALF ([2]; 30 mg/kg oral) [ng/mL]	Percent inhibition (% ) ([2]; 30 mg/kg oral) [%]	hyperplasia of goblet cells (effect in words) [3]
COc1ccc([C@]2(C#N)CC[C@@H](C(=O)O)CC2)cc1OC1CCCC1 [Cilomilast, cilomilast, reference compound]	-21.4	-17.2	-35.2	promoted production of mucin					
COc1ccc(-c2nc3cc(-n4cncn4)ccc3[nH]2)cc1OCC1CC1 [Compound 1]	18.1	49.4	88.6		202.4 ± 93.1	53.2 ± 25.7	166.6 ± 43.6	63.0 ± 12.0	inhibitory effect
COc1ccc(-c2nc3cc(-n4cncn4)ccc3[nH]2)cc1OC1CCCC1 [Compound 2]	57.1	53.3	80.8						
COc1ccc(-c2nc3cc(-n4cncn4)ccc3[nH]2)cc1OC [Compound 3]	60	74.9	83.9						
COc1cc(-c2nc3cc(-n4cncn4)ccc3[nH]2)ccc1OCC1CC1 [Compound 4]	22.7	48.8							
COc1ccc(-c2nc3cc(-n4cncn4)ccc3[nH]2)cc1OCC(C)C [Compound 6]	15.4	51.4	102						
O=C(Nc1c(Cl)cncc1Cl)c1ccc(OC(F)F)c(OCC2CC2)c1 [Roflumilast, roflumilast, reference compound]	-37.4	-28.7	-16.8	promoted production of mucin					

From patent publication EP1676575A2, “MUCIN PRODUCTION INHIBITOR” (TAIHO PHARMACEUTICAL COMPANY LIMITED, priority 2003, dated 2005)
